Earlier results as cited in patent US9662359B2, “Compositions and methods for treating depression” (Alexander Vuckovic, M.D., LLC, priority 2010, dated 2017).

Details: oral SAMe

S-Adenosyl methionine [SAMe]
half-life: about 100 minutes
